Holding throughout (assay type): cell-based
Experiment [1] deals with Aspergillus niger. The experiment is described as follows: Spectrum of activity, agar diffusion zones of inhibition. Particulars: SAB agar, 24 hours, read-out: Zones of inhibition (diameter). Here is the method: (§1) Method—The spectrum of activity was determined by placing solutions of the compound, prepared in sodium phosphate buffer, pH 6.6, in wells in seeded Sabouraud's Dextrose Agar. Activity was assessed by measuring the zones of inhibition following incubation at 37° C. (yeasts and Aspergillus niger) or 30° C. (other filamentous fungi) for 24 hours.
For orientation: In agar diffusion tests the substance spreads into inoculated agar from a disc or well.

In a further experiment the test system is Candida albicans 73/079. Described as above. Particulars: SAB agar, 24 hours, read-out: Zones of inhibition (diameter). Here is the method:
as §1

The test system of experiment [2] is Crytococcus neoformans 451. Described as above. As to conditions: SAB agar, 24 hours, read-out: Zones of inhibition (diameter). Here is the method: as §1
For experiment [3], the system named is Hendersonula torulides TH65. Described as above. Particulars: SAB agar, 24 hours, read-out: Zones of inhibition (diameter). Here is the method:
as §1

The test system of a further experiment is Paecilomyces varioti. Described as above. As to conditions: SAB agar, 24 hours, read-out: Zones of inhibition (diameter). Here is the method:
as §1

The subject of experiment [4] is Pityrosporum canis 0024RE. The experiment is described as above. As to conditions: SAB agar, 24 hours, read-out: Zones of inhibition (diameter). Here is the method: as §1
In a further experiment the test system is Rhizopus oryzae 21602. The description is as above. Particulars: Rhizopus arrhizus, SAB agar, 24 hours, read-out: Zones of inhibition (diameter). Here is the method: as §1
Another experiment concerns Saccharomyces cerevisiae. Described as above. As to conditions: SAB agar, 24 hours, read-out: Zones of inhibition (diameter). Here is the method:
as §1

In experiment [5] the test system is Trichophyton mentagrophytes 569A. The experiment is described as above. Particulars: SAB agar, 24 hours, read-out: Zones of inhibition (diameter). Here is the method: as §1
Experiment [6] relates to Aspergillus niger. The experiment in a line: Minimal Inhibitory Concentration, broth microtitre dilution. As to conditions: 37° C., inoculum 10^4 spores/ml, read-out: Minimum Inhibitory Concentration (MIC). Here is the method:
(§2) Method—The Minimal Inhibitory Concentration (MIC) was determined by diluting the compound in a broth medium in a microtitre tray. The organisms were diluted and added to the wells to provide a final inoculum of approximately 10^5 cells per ml or 10^4 fungal spores per ml. The trays were incubated at 37° C. and the turbidity of each well noted at intervals. The (MIC) was taken as the lowest concentration (in mg/ml) which prevented significant growth.

A further experiment deals with Candida albicans 731079. The experiment is described as above. As to conditions: 37° C., inoculum 10^5 cells/ml, read-out: Minimum Inhibitory Concentration (MIC). Here is the method:
as §2

The test system of experiment [7] is yeasts and filamentous fungi. The experiment is described as follows: Agar diffusion test, overall spectrum of activity. As to conditions: summary of Table 1. Here is the method: as §1
The next experiment has as its system Candida albicans. The experiment is described as follows: Antifungal activity (stated characteristic of the compound).

≈ marks a conversion by molar mass, not a printed value. Where two headings read alike, the source gives them in different places.

For the molecule `COC1CC2CCC(C)C(O)(O2)C(=O)C(=O)N2CCCCC2C(=O)OC(C(C)CC2CCC(O)C(OC)C2)CC(=O)C(C)/C=C(\C)C(O)C(O)C(=O)C(C)CC(C)/C=C/C=C/C=C/1C` (stereo not drawn), the zone of inhibition at 100 µg/mL with Aspergillus niger [1] (CONC 100 μg/ml) was 46 mm; in the experiment with Candida albicans 73/079 (CONC 100 μg/ml) it was 29 mm; in experiment [2] (CONC 100 μg/ml), 29 mm; in experiment [3] (CONC 100 μg/ml), 33 mm; in the experiment with Paecilomyces varioti (CONC 100 μg/ml), 26 mm; in [4] (CONC 100 μg/ml) it was 0 mm. Further, the zone of inhibition at 100 µg/mL in the experiment with Rhizopus oryzae 21602 (CONC 100 μg/ml) worked out at 46 mm; in the experiment on Saccharomyces cerevisiae (CONC 100 μg/ml) it was 34 mm; in experiment [5] (CONC 100 μg/ml) it was 42 mm. For the same molecule, the zone of inhibition at 500 µg/mL amounted to 47 mm in the experiment with Aspergillus niger [1] (CONC 500 μg/ml); 29 mm with Candida albicans 73/079 (CONC 500 μg/ml); 29 mm in experiment [2] (CONC 500 μg/ml); 36 mm in experiment [3] (CONC 500 μg/ml); 28 mm in the experiment on Paecilomyces varioti (CONC 500 μg/ml); 0 mm in experiment [4] (CONC 500 μg/ml). Moreover, the zone of inhibition at 500 µg/mL in the experiment on Rhizopus oryzae 21602 (CONC 500 μg/ml) was determined as 47 mm; with Saccharomyces cerevisiae (CONC 500 μg/ml), 33 mm; in [5] (CONC 500 μg/ml), 43 mm. The MIC stood at 16 µg/mL (≈ 17.8 µM) in the experiment with Aspergillus niger [6] (24 h, day 1 of incubation); 32 µg/mL (≈ 35.5 µM) with Aspergillus niger [6] (48 h, day 2 of incubation); 32 µg/mL (≈ 35.5 µM) in the experiment on Candida albicans 731079 (Candida albicans, 731079, 24 h, day 1 of incubation); 32 µg/mL (≈ 35.5 µM) in the experiment on Candida albicans 731079 (Candida albicans, 731079, 48 h, day 2 of incubation). In experiment [7], the “Spectrum of activity in the agar diffusion test” value is given as “broad spectrum activity”. Besides, the “Antifungal activity against Candida albicans” value with Candida albicans was “shows antifungal activity”.
